Test results reported in US20120277312A1, “Ethylgallate and Related Compounds as a Treatment for Sepsis and Septic Shock” (priority 2009, published 2012).

Tests used:
[1] = Hydrogen peroxide scavenging (Amplex Red assay, electrochemical techniques, glucosidase/glucose assay); type: biochemical; conditions: multiple methodologies
Text: (§1) This generation appears to involve the mechanism described by Wentworth et al in which proteins can utilize water as a catalyst to generate H2O2 (12) Once formed by lysozyme, H2O2 then reacts with intrinsic catalase to form a species of catalase termed Compound I (2) Compound I then acts to generate cyclic-guanosine monophosphate which in turn causes vasodilation. […] These as well as other mechanisms may account for the efficacy of ethyl-gallate treatment in septic shock.

catalase = molecular target: T1, catalase (Homo sapiens, UniProt P04040); assay: Conversion of catalase to compound I (wave-scan spectroscopy); type: biochemical
T1 sequence (P04040 2-527 limits assumed): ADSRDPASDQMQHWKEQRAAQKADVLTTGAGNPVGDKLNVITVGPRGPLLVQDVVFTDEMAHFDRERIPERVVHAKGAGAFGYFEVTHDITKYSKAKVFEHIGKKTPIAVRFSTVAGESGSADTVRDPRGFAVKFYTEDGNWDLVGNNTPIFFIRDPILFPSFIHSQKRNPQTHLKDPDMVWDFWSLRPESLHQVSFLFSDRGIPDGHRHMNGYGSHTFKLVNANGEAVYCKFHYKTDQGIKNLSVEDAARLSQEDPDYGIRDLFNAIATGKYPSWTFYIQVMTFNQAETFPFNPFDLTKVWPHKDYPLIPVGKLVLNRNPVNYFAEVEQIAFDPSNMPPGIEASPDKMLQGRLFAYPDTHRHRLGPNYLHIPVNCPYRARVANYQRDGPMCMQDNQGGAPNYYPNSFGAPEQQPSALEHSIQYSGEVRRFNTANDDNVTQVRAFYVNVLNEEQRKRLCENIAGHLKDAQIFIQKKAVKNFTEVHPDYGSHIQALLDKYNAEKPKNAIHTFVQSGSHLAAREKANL
Text: as §1

[2] = tested on: POX-induced vasodilation in carotid and superior mesenteric arterial preparations; assay: Peroxacetic acid (POX)-induced vasodilation in carotid and superior mesenteric arterial preparations; parameters: species or system canine
Text: POX is a hydroperoxide (slightly different from the molecule of hydrogen peroxide) that also may be released in septic shock by macrophages and inflammatory cells. […] However, the pathway by which POX caused vasodilation is much different than that caused by lysozyme. […] To some extent, therefore, the improvement in hemodynamics previously observed when ethyl-gallate was infused in our in-vivo study could have also been related to ethyl-gallate's inhibition of the POX pathway in addition to ethyl-gallate's inhibitory-effect on lysozyme mediated pathways.
The only similarity found between lysozyme and POX is that POX's mechanism of action is also independent of the endothelium and nitric oxide formation, since we could not prevent POX's vasodilatory effect by removal of the endothelium or by nitric oxide inhibition. In contrast to lysozyme, POX seems to cause vasodilation is by activation of an enzyme in the vascular tissue called prostaglandin H synthase (PHS). PHS has an important mechanism of action, in that after activation by hydroperoxides (such as POX), it can in turn activate the cyclooxygenase pathway leading to vasodilation.

non-septic dog = assay: Ethyl gallate infusion in non-septic dogs; type: in vivo
Text: The effect of ethyl-gallate treatment on hemodynamics in the non-septic animal was different from that found in the septic animal. In this protocol, 5 grams of ethyl-gallate were given in a similar manner over the course of the 5 hr treatment-phase of the study.
We have thus far studied 5 dogs in septic shock in which ethyl gallate was infused. We have compared the results obtained in this group with those found in septic animals (n=5) in which this treatment was not given. In addition, in preliminary experiments, we have looked at the effect of ethyl gallate infusion on hemodynamics in non-septic animals (n=3). In a time control non-septic group in which placebo (normal saline solution) was given, we have studied one animal.
The purpose of this study was to determine whether ethyl-gallate could reverse the fall in MAP that occurs in this sepsis model. Ethyl gallate was infused after MAP pressure fell approximately 30 to 40% from the baseline value in which this decline in MAP was not responsive to volume infusion to return Pwp to the baseline value (septic shock condition). This approach would be consistent with that observed in the clinical situation in which vasopressors, such as norepinephrine would be given at this interval. In the two sepsis groups, the animals were allocated in randomized fashion in which one received ethyl-gallate and volume infusion, while in the other, volume infusion alone was given. In the two non-sepsis groups, one received ethyl-gallate while the other received placebo treatment. In the non-sepsis groups, only maintenance volume for anesthesia and for placebo drugs was given over the course of the experiment.

[3] = non-septic dogs, 5 grams over 5 hr
[4] = non-septic dogs, ethyl-gallate infusion

CCOC(=O)c1cc(O)c(O)c(O)c1 [ethyl gallate]
scavenging of hydrogen peroxide [1]: can scavenge
inhibition of degradation of catalase to compound I (catalase): can inhibit
inhibition of vasodilation caused by POX [2]: inhibited
heart rate effect (non-septic dog; non-septic dog, after infusion, FIG. 7): slight tachycardia
SVR as compared with pre-treatment (non-septic dog; [3]): decrease
change in MAP (non-septic dog; [3]): did not cause a change
CO (non-septic dog; [4]): appeared to increase
SV (non-septic dog; [4]): appeared to increase
SW (non-septic dog; [4]): appeared to increase
